Data set [1] relates to hyperlipidémie provoquée par l'administration de TRITON®. Description: Triton test: hyperlipidemia induced by i.v. TRITON W.R. in fasted rats. Type of data set: in vivo, rats WISTAR mâles. The conditions noted are these: for Cholestérol estérifié Score (par rapport au clofibrate compté pour 1) / Cholestérol total Score (par rapport au clofibrate compté pour 1) / Lipides totaux Score (par rapport au clofibrate compté pour 1) / Triglycérides Score (par rapport au clofibrate compté pour 1): ratio to clofibrate of the same series; for inhibition in vivo at 250 mg/kg: Rattus norvegicus, po, blood assayed 6 h and/or 24 h later. The source says:
Dans une première série d'expériences, des produits ont été testés sur une hyperlipidémie provoquée par l'administration de TRITON® selon le protocole suivant.
Les essais ont été réalisés sur des groupes de cinq rats WISTAR mâles dont le poids varie de 150 à 175 g.
Pour effectuer ces essais, on provoque une hyperlipidémie chez les animaux, au moyen du produit commercialisé par la Société ROHM and HAAS sous le nom de TRITON® W. R.
On observe, sur cette hyperlipidémie, les effets obtenus par administration des substances actives selon l'invention.
Les essais sont réalisés comme suit : • les rats sont mis à jeûner pendant 18 heures, puis on administre le TRITON® W.R. par voie intraveineuse en solution aqueuse à 10 % à raison de 200 mg/kg ;
6 heures et/ou 24 heures plus tard, on effectue les dosages sur le sang de façon traditionnelle.
Dans la première colonne, on a indiqué le numéro du composé testé.
Dans la deuxième colonne, on a indiqué le nombre d'animaux qui ont été soumis au test.
Dans les quatre dernières colonnes, on a indiqué les résultats relatifs respectivement : • aux lipides totaux, • aux triglycérides, • au cholestérol total, • au cholestérol estérifié.
Dans chacune de ces colonnes, on indique : • a) le pourcentage de diminution par rapport au témoin TRITON; • b) le score par rapport au clofibrate de référence, c'est-à-dire le rapport de l'intensité de l'activité du produit testé vis-à-vis de celle,de l'activité au clofibrate comptée pour 1.

Data set [2] deals with animaux ayant reçu pendant une durée prolongée un régime athéromateux. Description: Atheromatous diet test (cholesterol/cholic acid diet + vitamin D2): biochemical, macroscopic and microscopic examinations. Type of data set: in vivo, rats WISTAR femelles. The text has this: Dans une deuxième série expérimentale, on a testé l'activité de certains produits de l'invention sur des animaux ayant reçu pendant une durée prolongée un régime athéromateux.
L'essai s'effectue sur des rats WISTAR femelles, d'un poids d'environ 160-180 g.
Les animaux reçoivent une alimentation provenant de l'usine d'alimentation nationale de Villemois- son-Sur-Orge, France, et désignée sous la référence UAR A03, enrichie en cholestérol (0,5 %) et en acide cholique (0,5 %).
Après 15 jours de régime athéromateux et tout en maintenant les animaux sous régime athéromateux, on leur administre par voie orale pendant 4 jours 250 000 ui/kg de vitamine D2 commercialisée sous le nom de Stérogyl 25H, en solution dans de l'huile d'olive.
On administre ensuite les produits à étudier pendant 4 semaines, dès la fin de l'administration de l'agent lésionnel.
La quantité de produit administrée aux animaux est de 100 mg/kg.
En fin d'étude, on effectue sur tous les animaux des examens biochimiques (cholestérol total, cholesterol high density lipoprotein (HDL) et cholesterol low density lipoprotein (LDL), et triglycérides).
En fin d'étude, tous les animaux encore vivants sont sacrifiés, et l'on prélève divers organes dont particulièrement l'aorte, pour l'étude histologique de cette dernière. Deux critères sont étudiés : le nombre de zones athéromateuses et l'intensité des lésions.
Le calcul des cotations s'effectue de la façon suivante : • en ce qui concerne l'intensité des lésions, on effectue une cotation allant de 0 pour l'absence de lésion à […] pour les lésions les plus fortes, et ceci pour chaque type d'altération considéré (augmentation des espaces interlamellalres, interruption des lames élastiques, épaississement des lames élastiques, dépôt de calcium, dépôt de mucopolysaccharides); puis on fait l'addition de la totalité des résultats par lot d'animaux; • en ce qui concerne le nombre de zones athéromateuses, par comptage de ces dernières et addition de la totalité des chiffres obtenus par lot d'animaux.
On calcule ensuite le pourcentage de diminution par rapport aux témoins régime et le score, c'est-à-dire le rapport de l'intensité de l'activité du produit testé vis-à-vis de celle de l'activité du clofibrate, compté pour 1.
Le tableau IV donne les résultats détaillés des examens biochimiques : • a) en % de diminution par rapport au témoin régime; • b) en score, par rapport au produit de référence, le clofibrate, ce dernier étant compté pour 1.
Le tableau V donne le résultat des examens macroscopiques : • a) en % de diminution des animaux atteints de lésions; • b) en score par rapport au clofibrate de référence, dont le score est compté pour 1.
Le tableau VI donne les résultats microscopiques avec cotation histologique concernant l'intensité des lésions, et le nombre de zones athéromateuses.

The nature of data set [3]: Acute oral toxicity (lethal dose). Type of data set: in vivo. The conditions noted are these: mouse, in vivo, po, oral, read-out: DL50 (the source's name) (converted). The text has this: (§1) La toxioité aiguë est exprimée par la dose létale 50, c'est-à-dire la dose létale entraînant la mort de 50 % des animaux.
(§2) Cette étude a été effectuée sur des souris mâles et femelles auxquelles on a administré les produits à tester par voie orale à des concentrations différentes et on a mesuré la létalité sur dix souris mâles et sur 10 souris femelles.

A further data set has as its system souris mâles et femelles. Description: Acute oral toxicity (lethal dose). Type of data set: in vivo. The conditions noted are these: for DL0 / DL100: oral.
Source text: as §1, §2

Where [4] appears, read: macroscopic examination, 100 mg/kg for 4 weeks.
[5] abbreviates: 250 mg/kg oral, given with TRITON W.R. 200 mg/kg i.v., read-out: Cholestérol estérifié % (pourcentage de diminution par rapport au témoin TRITON).
Setting [6] is: 250 mg/kg oral, given with TRITON W.R. 200 mg/kg i.v., read-out: Cholestérol total % (pourcentage de diminution par rapport au témoin TRITON).
Where [7] appears, read: 250 mg/kg oral, given with TRITON W.R. 200 mg/kg i.v., read-out: Triglycérides % (pourcentage de diminution par rapport au témoin TRITON).
[8] abbreviates: read-out: Lipides totaux % (pourcentage de diminution par rapport au témoin TRITON), 250 mg/kg oral, given with TRITON W.R. 200 mg/kg i.v.

Read-outs that look alike come from different tables or passages of the source.

The text below walks through data of patent publication EP0081425B1, “Pharmaceutical compositions having normolipemic properties and containing compounds of the n-substituted benzenesulfonamide type” (priority 1981, dated 1983).

Regarding `CCOC(=O)C(C)(C)Oc1ccc(Cl)cc1` [Clofibrate], in data set [1] (250 mg/kg oral), the “Cholestérol estérifié Score (par rapport au clofibrate compté pour 1)” value (“Cholestérol estérifié Score” below) is recorded as 1,00, the “Cholestérol total Score (par rapport au clofibrate compté pour 1)” value (shortened to “Cholestérol total Score”) was 1,00, the “Lipides totaux Score (par rapport au clofibrate compté pour 1)” value (shortened to “Lipides totaux Score”) is 1,00 and the “Triglycérides Score (par rapport au clofibrate compté pour 1)” value was 1,00. Moreover, in data set [2] (100 mg/kg for 4 weeks), the “CHOLESTEROL HDL Score (clofibrate compté pour 1)” value is 1,00, the “CHOLESTEROL LDL Score (clofibrate compté pour 1)” value was 1,00, the “CHOLESTEROL T Score (clofibrate compté pour 1)” value is on record as 1,00 and the “TRIGLYCERIDES Score (clofibrate compté pour 1)” value is listed as 1,00. Besides, in data set [2] (setting [4]), the “ANIMAUX ATTEINTS %” value was 81,82% and the “ANIMAUX ATTEINTS SCORE CLOFIBRATE” value is given as 1,00. Further, the “NOMBRE DE ZONES ATHEROMATEUSES POUR 15 ANIMAUX Score Clofibrate” value in data set [2] (microscopic examination) is given as 1,00. Besides, the “COTATION HISTOLOGIQUE Cotation” value in data set [2] (microscopic examination of the aorta, intensity of lesions, sum per group, 100 mg/kg for 4 weeks) is 49,10. In data set [2] (microscopic examination of the aorta, 100 mg/kg for 4 weeks), the “NOMBRE DE ZONES ATHEROMATEUSES POUR 15 ANIMAUX Cotation” value is on record as 72,30. Besides, the “COTATION HISTOLOGIQUE Score Clofibrate” value in data set [2] (microscopic examination, intensity of lesions) is reported as 1,00.

As to `CCC(CO)NS(=O)(=O)c1cc(Cl)c([N+](=O)[O-])cc1OC` (stereo not drawn) [compound 316], in data set [1] (250 mg/kg oral), the “Cholestérol estérifié Score” value is reported as 0,63. The “Cholestérol total Score” value in data set [1] (250 mg/kg oral) was 1,17. In addition, in data set [1] (250 mg/kg oral), the “Lipides totaux Score” value is recorded as 3,09. Further, the inhibition in vivo at 250 mg/kg worked out at 31.2% in data set [1] (setting [5]), 11.1% in data set [1] (setting [6]), 0% in data set [1] (setting [7]) and 42.6% in data set [1] (setting [8]). Moreover, the LD50 was over 15000 mg/kg in data set [3] (Souris femelles) and 18500 mg/kg in data set [3] (Souris mâles). The DL0 in the data set on souris mâles et femelles (Souris femelles) was ≥ 15 000 mg/kg; in the data set with souris mâles et femelles (Souris mâles) it was 15 000 mg/kg. Further, the figures for the DL100 in the data set with souris mâles et femelles (Souris femelles) and with souris mâles et femelles (Souris mâles) were > 15 000 mg/kg and > 20 000 mg/kg, respectively. In the data set with souris mâles et femelles (conclusion in words from all results), the “toxicité par voie digestive” value is given as “pratiquement dénué de toxicité par voie digestive”.

For the compound `COc1cc([N+](=O)[O-])c(Cl)cc1S(=O)(=O)NCC(C)O` (stereo not drawn) [compound 322, chloro-5 N-(hydroxy-2 propyl) méthoxy-2 nitro-4 benzènesulfonamide], in data set [1] (250 mg/kg oral), the “Cholestérol estérifié Score” value was 0,27, the “Cholestérol total Score” value is given as 0,83, the “Lipides totaux Score” value is 3,15 and the “Triglycérides Score (par rapport au clofibrate compté pour 1)” value is reported as 1,02. Also, the inhibition in vivo at 250 mg/kg in data set [1] (setting [5]) is 13.1%. Also, the inhibition in vivo at 250 mg/kg in data set [1] (setting [6]) is 7.9%. Also, in data set [1] (setting [7]), the inhibition in vivo at 250 mg/kg stood at 73.4%. In addition, the inhibition in vivo at 250 mg/kg in data set [1] (setting [8]) stood at 43.5%.

As for `COc1ccc(Cl)cc1S(=O)(=O)N(C)CCO` [compound 324], in data set [1] (250 mg/kg oral), the “Cholestérol estérifié Score” value was 0,52. Further, the “Cholestérol total Score” value in data set [1] (250 mg/kg oral) is given as 2,85. For the same compound, the “Lipides totaux Score” value in data set [1] (250 mg/kg oral) is reported as 0,58. In addition, the inhibition in vivo at 250 mg/kg in data set [1] (setting [5]) came to 22.6%; in data set [1] (setting [6]) it was 26.2%; in data set [1] (setting [7]) it was 19.4%; in data set [1] (setting [8]) it was 25.9%.

On to `COc1cc([N+](=O)[O-])ccc1S(=O)(=O)N(C)CCO` [compound 325], for which, in data set [1] (250 mg/kg oral), the “Cholestérol estérifié Score” value is given as 0,04. Further, the “Lipides totaux Score” value in data set [1] (250 mg/kg oral) was 0,06. For the same compound, the inhibition in vivo at 250 mg/kg in data set [1] (setting [5]) came to 1.6%; in data set [1] (setting [6]) it was 0%; in data set [1] (setting [7]) it was 0%; in data set [1] (setting [8]) it was 2.7%.

`COc1cc(N)ccc1S(=O)(=O)N(C)CCO` [compound 326]: the “Cholestérol estérifié Score” value in data set [1] (250 mg/kg oral) was 0,67. Further, the “Cholestérol total Score” value in data set [1] (250 mg/kg oral) was 0,41. Further, the “Lipides totaux Score” value in data set [1] (250 mg/kg oral) is listed as 0,71. Besides, the inhibition in vivo at 250 mg/kg in data set [1] (setting [5]) turned out to be 29%; in data set [1] (setting [6]), 3.8%; in data set [1] (setting [7]), 20.3%; in data set [1] (setting [8]), 31.9%.

For `COc1ccc([N+](=O)[O-])cc1S(=O)(=O)N(C)CCO` [compound 327], in data set [1] (250 mg/kg oral), the “Lipides totaux Score” value was 0,53. Also, the inhibition in vivo at 250 mg/kg in data set [1] (setting [5]) was determined as 0%; in data set [1] (setting [6]) it was 0%; in data set [1] (setting [7]), 9%; in data set [1] (setting [8]), 23.6%.

`COc1ccc(N)cc1S(=O)(=O)N(C)CCO` [compound 328]: the “Lipides totaux Score” value in data set [1] (250 mg/kg oral) was 0,46. In addition, the inhibition in vivo at 250 mg/kg came to 0% in data set [1] (setting [5]), 0% in data set [1] (setting [6]), 0% in data set [1] (setting [7]) and 20.7% in data set [1] (setting [8]).

`COc1cc([N+](=O)[O-])c(Cl)cc1S(=O)(=O)N(C)CCO` [compound 329]: the “Lipides totaux Score” value in data set [1] (250 mg/kg oral) is given as 0,84. Also, the inhibition in vivo at 250 mg/kg is 0% in data set [1] (setting [5]), 0% in data set [1] (setting [6]), 40% in data set [1] (setting [7]) and 37.6% in data set [1] (setting [8]).

For `COc1cc(N)c(Cl)cc1S(=O)(=O)N(C)CCO` [compound 330], the “Cholestérol estérifié Score” value in data set [1] (250 mg/kg oral) was 0,96. Moreover, the inhibition in vivo at 250 mg/kg in data set [1] (setting [5]) amounted to 41.9%; in data set [1] (setting [6]), 0%; in data set [1] (setting [7]) it was 0%.
